In US5094945A, “Inhibition resistant 5-enolpyruvyl-3-phosphoshikimate synthase, production and use” (priority 1988, dated 1992):

Legend:
[1] = biological target: T1, 5-enolpyruvyl-3-phosphoshikimate synthase from wild type strain STK1 (Salmonella typhimurium, UniProt P07637); experiment: ES-3-P synthase assay (release of inorganic phosphate), enzyme preparation of wild type strain STK1; type: biochemical, S. typhimurium
T1 construct: endogenous in cells; host or cells: S. typhimurium strain STK1, French press homogenate, protamine sulfate precipitate
Method: (§1) S. typhimurium strains CT7 and STK1 were grown with aeration for 24 hours at 37° C. in M9 broth. Cells were harvested by centrifugation at 4° C., washed twice with M9 salts, resuspended in 0.01 M Tris-HC1 (pH8.2) and sheared with a French press at 20,000 psi. The homogenate was centrifuged at 16,000 g for 40 min and the supernatant treated with 2% protamine sulfate (1.0 ml of 2% protamine sulfate for every 35 mg of protein). The precipitate was removed by centrifugation at 18,000 xg for 35 min, resuspended and used for enzyme assays. Activity of the enzyme was determined by measuring the rate of release of inorganic phosphate (Heinonen and Lahti, Anal. Biochem. (1981) 113:313-317).
(§2) A typical assay mixture contained 150 μmole maleic acid buffer (pH5.6), 2.88 μmole phosphoenolpyruvate, 4.08 μmole 3-phosphoshikimate and the enzyme fraction in a total volume of 1.5 ml. The reaction was started by addition of the enzyme after pre-incubation of the assay mixture at 37° C. for 5 min. Aliquots were taken at timed intervals and mixed immediately with the reagents for phosphate analysis. The low pH of the reagent (1.25 N H2 SO4) terminated enzyme activity.
(§3) Resistance to glyphosate mediated by a mutation(s) at the aroA locus could result from altered regulation leading to overproduction of 5-enolpyruvyl-3phosphoshikimate synthase or to a structural alteration of the enzyme. To distinguish between these two hypotheses in vitro enzyme preparations were assayed from Salmonella strains STK1 and CT7 which are the wild type and mutant strain respectively. 5-Enolpyruvyl-3-phosphoshikimate synthase activities from wild type and glyphosate-resistant mutants differed by Km for 3-phosphoshikimate, Kd for glyphosate, and at high concentration of 3-phosphoshikimate, by specific activity.

[2] = biological target: T2, 5-enolpyruvyl-3-phosphoshikimate synthase from glyphosate-resistant mutant CT7 (Salmonella typhimurium, UniProt P07637, P101S); experiment: ES-3-P synthase assay (release of inorganic phosphate), enzyme preparation of glyphosate-resistant mutant CT7; type: biochemical, S. typhimurium
T2 construct: endogenous in cells; host or cells: S. typhimurium strain CT7, French press homogenate, protamine sulfate precipitate
Method: as §1, §2
(§4) Resistance to glyphosate mediated by a mutation(s) at the aroA locus could result from altered regulation leading to overproduction of 5-enolpyruvyl-3phosphoshikimate synthase or to a structural alteration of the enzyme. […]

[3] = biological target: T3, EPSP synthase purified from wild type S. typhimurium (Salmonella typhimurium, UniProt P07637); experiment: Fluorimetric EPSP synthase assay, forward direction, purified wild type enzyme; type: biochemical; settings: pH 7.0, 500 μM shik 3-P, read-out: Ki for glyphosate
T3 construct: ES-3-P synthase purified from wild-type S. typhimurium; endogenous in cells; host or cells: wild-type S. typhimurium (purified)
Method: (§5) In the next study, a comparison of the kinetic parameters at pH 7.0 of ES-3-P synthase purified from wild-type S. typhimurium and from the mutant glyphosate-resistant strain was made. Enzyme activity was assayed fluorometrically in the forward direction as described by Boocock and Coggins, FEBS Letters (1983) 154:127-133.

[4] = biological target: T4, EPSP synthase purified from the mutant glyphosate-resistant strain (Salmonella typhimurium, UniProt P07637, P101S); experiment: Fluorimetric EPSP synthase assay, forward direction, purified mutant enzyme; type: biochemical, S. typhimurium
T4 construct: ES-3-P synthase purified from wild-type S. typhimurium and from the mutant glyphosate-resistant strain; endogenous in cells; host or cells: mutant glyphosate-resistant S. typhimurium strain (purified)
Method: as §5

[5] = biological target: T5, EPSP synthase from the glyphosate-resistant strain of S. typhimurium (Salmonella typhimurium, UniProt P07637, P101S); experiment: EPSP synthase activity with inhibitor, bacterial mutant enzyme; type: biochemical; settings: pH 7, read-out: EPSP Synthase Activity, % control
T5 construct: EPSP synthase activities from the glyphosate-resistant strain of S. typhimurium; endogenous in cells; host or cells: glyphosate-resistant strain of S. typhimurium
Method: (§6) In the next study, the effect of glyphosate and antiserum to bacterial EPSP synthase on EPSP synthase activities from the glyphosate-resistant strain of S. typhimurium, from the wild-type turnip gall and from ocs-aroA turnip gall was studied. Enzyme activity was assayed fluorometrically in the forward direction as described by Boocock and Coggins, supra.

[6] = tested on: EPSP synthase from wild type turnip gall; experiment: EPSP synthase activity with inhibitor, wild type turnip gall extract; type: biochemical; settings: pH 7.0, PEP 500 μM, shik 3P 500 μM
Method: as §6

[7] = tested on: EPSP synthase from ocs-aroA transformed turnip gall; experiment: EPSP synthase activity with inhibitor, ocs-aroA transformed turnip gall extract; type: biochemical; settings: pH 7.0, PEP 500 μM, shik 3P 500 μM
Method: as §6

[8] = tested on: S. typhimurium strain TA831; experiment: Colony formation on solid M9 medium with glyphosate; type: cell-based; settings: Salmonella enterica, read-out: glyphosate concentration at which no colonies form
Method: (§7) Glyphosate was added to M9 after autoclaving. For selection experiments, a commercial solution of glyphosate was used. Resistant mutants were isolated by plating bacterial suspensions in M9 broth or on M9 solid medium supplemented with varying amounts of glyphosate. The level of resistance achieved by the mutants was scored by three types of tests: a spot test, consisting of toothpicking a small colony from a non-selective to a selective medium; a streak test, consisting of streaking cells on a selective plate to obtain single colonies; and growth curves, to determine the kinetics of growth in liquid medium supplemented with glyphosate.

[9] = tested on: S. typhimurium strain CTF3; experiment: Spot test for glyphosate resistance; type: cell-based
Method: as §7

[10] = tested on: S. typhimurium Pmg^r mutants (fifteen mutants, incl. CT7); experiment: Streak test on M9 medium with glyphosate; type: cell-based; settings: streaked on M9 medium
Method: as §7

S. typhimurium STK1 = experiment: Growth in minimal medium supplemented with glyphosate, wild type; type: cell-based; settings: Salmonella enterica, minimal medium with 70 μg/ml glyphosate
Method: as §7
(§8) The above assays were performed on enzyme preparations obtained from cells grown in minimal medium. To determine whether the enzyme of the glyphosate resistance mutant was differentially regulated during glyphosate induced stress, STK1, the wild type, and CT7 the mutant, were grown in minimal medium supplemented, respectively, with 70 μg/ml and 1000 μg/ml of glyphosate. These conditions give approximately 20-30% growth inhibition. The specific activity of preparations from cells grown in the presence of glyphosate was 10% higher than that found in preparations from cells grown without glyphosate.

S. typhimurium CT7 = experiment: Growth in minimal medium supplemented with glyphosate, mutant; type: cell-based; settings: Salmonella enterica, read-out: growth inhibition
Method: as §7, §8

wild type E. coli = experiment: Growth kinetics with glyphosate, wild type E. coli; type: cell-based
Method: as §7
(§9) The growth kinetics of both S. typhimurium and E. coli strains with wild type and mutant aroA locus were investigated.

[11] = tested on: aroA E. coli strain LC3 harboring pPMG1; experiment: Growth kinetics with glyphosate, LC3 harboring pPMG1; type: cell-based; settings: 2 μg/ml of glyphosate
Method: as §7, §9

[12] = tested on: aroA E. coli strains with pPMG11; experiment: Glyphosate resistance of aroA E. coli carrying pPMG11; type: cell-based; settings: 5.5 Kb BglII/HindIII Salmonella DNA segment (pPMG11)
Method: as §7
To subclone the aroA-Pmg^r gene, plasmid pPMG1 was digested with the restriction endonuclease BglII. […] Plasmid pPMG1 was digested to completion with BglII, ligated in vitro and the DNA transformed into strain LC2 selecting for aroA complementation. Clones were screened and plasmids containing the 10 Kb BglII fragment in both orientations relative to the vector pVK100 were identified. Plasmids pPMG5 and pPMG6 complemented aroA E. coli strains and conferred high levels of glyphosate resistance. Further subcloning was accomplished by digesting plasmid pPMG5 with BglII and HindIII and ligating in vitro. Strain LC2 was transformed and colonies which were aroA+ and kanamycin sensitive were selected. […] This plasmid was designated pPMG11.

[13] = tested on: O=C(O)C1=C[C@@H](OP(=O)(O)O)[C@@H](O)[C@H](O)C1; experiment: ES-3-P synthase assay (release of inorganic phosphate), enzyme preparation of wild type strain STK1; type: biochemical, S. typhimurium; settings: other: STK1 wild type enzyme preparation; phosphoenolpyruvate 2.5 × 10^-1 M; 37.0 °C
Method: as §1, §2, §3

[14] = tested on: O=C(O)C1=C[C@@H](OP(=O)(O)O)[C@@H](O)[C@H](O)C1; experiment: ES-3-P synthase assay (release of inorganic phosphate), enzyme preparation of glyphosate-resistant mutant CT7; type: biochemical, S. typhimurium; settings: other: CT7 mutant enzyme preparation; phosphoenolpyruvate 2.5 × 10^-1 M; 37.0 °C
Method: as §1, §2, §4

C=C(OP(=O)(O)O)C(=O)O [15] = experiment: Fluorimetric EPSP synthase assay, forward direction, purified wild type enzyme; type: biochemical, S. typhimurium; settings: other: wild type, pH 7.0, 500 μM shik 3-P
Method: as §5

[16] = tested on: O=C(O)C1=C[C@@H](OP(=O)(O)O)[C@@H](O)[C@H](O)C1; experiment: as above; type: biochemical, S. typhimurium; settings: other: wild type, pH 7.0, 500 μM PEP
Method: as §5

C=C(OP(=O)(O)O)C(=O)O [17] = experiment: Fluorimetric EPSP synthase assay, forward direction, purified mutant enzyme; type: biochemical, S. typhimurium; settings: other: mutant, pH 7.0, 500 μM shik 3-P
Method: as §5

[18] = tested on: O=C(O)C1=C[C@@H](OP(=O)(O)O)[C@@H](O)[C@H](O)C1; experiment: as above; type: biochemical, S. typhimurium; settings: other: mutant, pH 7.0, 500 μM PEP
Method: as §5

T5 sequence (P07637 whole entry P101S): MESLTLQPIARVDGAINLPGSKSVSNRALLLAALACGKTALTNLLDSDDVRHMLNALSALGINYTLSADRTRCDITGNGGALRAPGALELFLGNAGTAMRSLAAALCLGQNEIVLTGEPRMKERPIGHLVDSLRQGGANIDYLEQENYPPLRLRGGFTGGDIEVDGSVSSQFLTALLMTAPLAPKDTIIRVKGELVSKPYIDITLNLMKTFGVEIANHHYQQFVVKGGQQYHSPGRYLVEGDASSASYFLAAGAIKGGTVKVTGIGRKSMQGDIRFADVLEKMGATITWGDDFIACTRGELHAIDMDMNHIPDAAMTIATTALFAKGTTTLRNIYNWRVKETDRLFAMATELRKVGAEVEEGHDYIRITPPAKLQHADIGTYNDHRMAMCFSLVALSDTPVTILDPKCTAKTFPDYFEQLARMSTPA
T1 sequence (P07637 whole entry): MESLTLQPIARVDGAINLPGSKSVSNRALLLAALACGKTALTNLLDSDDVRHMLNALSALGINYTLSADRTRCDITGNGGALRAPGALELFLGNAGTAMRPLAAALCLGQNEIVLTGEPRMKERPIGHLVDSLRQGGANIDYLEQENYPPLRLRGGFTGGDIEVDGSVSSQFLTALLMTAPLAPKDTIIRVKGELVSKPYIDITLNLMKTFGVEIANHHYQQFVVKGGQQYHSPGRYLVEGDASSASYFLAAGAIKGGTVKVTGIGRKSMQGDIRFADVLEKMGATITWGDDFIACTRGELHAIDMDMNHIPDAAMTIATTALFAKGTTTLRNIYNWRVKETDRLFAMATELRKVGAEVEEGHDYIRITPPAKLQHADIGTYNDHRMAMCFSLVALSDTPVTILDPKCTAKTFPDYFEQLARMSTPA
T4 sequence (P07637 whole entry P101S): as the sequence (P07637 whole entry P101S) above
T2 sequence (P07637 whole entry P101S): as above
T3 sequence (P07637 whole entry): as the sequence (P07637 whole entry) above

Compound `O=C(O)CNCP(=O)(O)O` [glyphosate, N-phosphonomethyl glycine] has an activation at 70 µg/mL ([1]; STK1 grown with 70 μg/ml glyphosate, read-out: increase of ES-3-P synthase specific activity, cells grown with vs without glyphosate) of 10%, a Kd ([1]; STK1 wild type enzyme preparation, read-out: Kd glyphosate) of 22 µM and a Kd [2] of 190 µM. It also gave a Ki [3] of 1.5 µM, a Ki [4] of 5 µM and a remaining activity at 100 µM [5] of 35%. For the same compound, the remaining activity at 500 µM [5] was 9%, the “EPSP Synthase Activity, % control” value ([6]; glyphosate 100 μM) was 8 % control and the “EPSP Synthase Activity, % control” value ([6]; glyphosate 500 μM) was 2 % control. For the same compound, the “EPSP Synthase Activity, % control” value ([7]; glyphosate 100 μM) was 29 % control, the “EPSP Synthase Activity, % control” value ([7]; glyphosate 500 μM) was 9 % control and the MIC [8] was over 200 µg/mL. The “glyphosate concentration to which the strain was resistant” value [9] was 350 µg/mL, the “glyphosate concentration on which colonies formed in 48 hours” value [10] was 2 mg/mL and the inhibition at 70 µg/mL (S. typhimurium STK1) was 20 to 30%. The inhibition at 1000 µg/mL (S. typhimurium CT7) was 20 to 30%, the inhibition at 100 µg/mL (wild type E. coli; Escherichia coli, 100 μg/ml glyphosate, read-out: inhibition of growth rate) was 40% and the growth (wild type E. coli; one mg/ml glyphosate) was “no growth was observed”. The growth inhibition [11] was “not significantly inhibited” and the “level of glyphosate resistance conferred” value [12] was “approx. 2 mg/ml”.

“5-enolpyruvyl-3-phosphoshikimate synthase from wild type strain STK1 (Salmonella enterica subsp. enterica serovar Typhimurium str. LT2)” was tested, and the Km [13] was 340 µM.

“5-enolpyruvyl-3-phosphoshikimate synthase from glyphosate-resistant mutant CT7 (Salmonella enterica subsp. enterica serovar Typhimurium str. LT2; P101S)” showed a Km [14] of 2800 µM.

“EPSP synthase purified from wild type S. typhimurium (Salmonella enterica subsp. enterica serovar Typhimurium str. LT2)” was tested, and the Km (C=C(OP(=O)(O)O)C(=O)O [15]) was 30 µM and the Km [16] was 2.6 µM.

In the case of “EPSP synthase purified from the mutant glyphosate-resistant strain (Salmonella enterica subsp. enterica serovar Typhimurium str. LT2; P101S)”, the Km (C=C(OP(=O)(O)O)C(=O)O [17]) is reported as 22 µM and the Km [18] is reported as 1.6 µM.
